{
  "source": "patent US10144715B2",
  "about": "“Piperazine derivatives as liver X receptor modulators” (priority 2014, dated 2018)",
  "key": {"[1]": {"molecular_target": "T1, Gal4 DNA binding domain fused to the LBD of LXRα in HEK293 cells (Homo sapiens (Human), UniProt Q13133)", "T1 sequence (Q13133 209-447)": "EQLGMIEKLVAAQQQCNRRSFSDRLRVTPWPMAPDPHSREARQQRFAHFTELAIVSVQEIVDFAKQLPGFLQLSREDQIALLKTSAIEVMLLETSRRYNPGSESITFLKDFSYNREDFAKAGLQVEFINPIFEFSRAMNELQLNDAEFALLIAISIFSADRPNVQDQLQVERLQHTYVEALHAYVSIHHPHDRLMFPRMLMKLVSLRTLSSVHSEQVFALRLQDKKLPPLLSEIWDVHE", "experiment": "LXR luciferase transcriptional reporter gene assay, agonist mode, LXRα", "assay_type": "cell-based", "settings": "for EC50: read-out: Cell LXRα EC50"}, "[2]": {"molecular_target": "T1, Gal4 DNA binding domain fused to the LBD of LXRα in HEK293 cells", "experiment": "LXR luciferase transcriptional reporter gene assay, antagonist mode (200 nM T0901317), LXRα", "assay_type": "cell-based", "settings": "for IC50: read-out: Cell LXRα IC50"}, "LXR α LBD protein [3]": {"molecular_target": "T2, LXR α LBD protein (Homo sapiens (Human), UniProt Q13133)", "T2 sequence (Q13133 209-447)": "as above", "experiment": "LXR α radioligand binding assay (SPA, competition with [3H]TO901317)", "settings": "read-out: LXRα Binding Ki"}, "LXR α LBD protein [4]": {"molecular_target": "T2, LXR α LBD protein", "experiment": "Human LXRα coactivator recruitment FRET assay, agonist mode", "assay_type": "biochemical", "summary_of_the_method": "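Time-resolved FRET (delay 100 µs, window 200 µs) after 2 h rt incubation of compound with 10 nM (2×) GST-tagged LXRα or LXRβ LBD plus 200 nM fluorescein-SRC2-3 and 20 nM Tb-anti-GST (4×). Percent control vs concentration fit to four-parameter model; EC50 at inflection.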"}, "LXR β LBD protein": {"molecular_target": "LXR β LBD protein (Homo sapiens (Human), UniProt P55055)", "sequence (P55055 222-460 limits assumed)": "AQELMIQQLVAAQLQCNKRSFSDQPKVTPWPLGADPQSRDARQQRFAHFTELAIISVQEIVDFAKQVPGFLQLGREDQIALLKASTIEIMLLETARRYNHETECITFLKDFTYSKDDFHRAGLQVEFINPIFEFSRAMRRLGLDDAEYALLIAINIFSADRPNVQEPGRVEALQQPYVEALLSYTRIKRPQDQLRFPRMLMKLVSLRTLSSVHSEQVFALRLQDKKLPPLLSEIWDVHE", "experiment": "biochemical", "assay_type": "binding", "settings": "Biological Test Example 1; read-out: LXRβ Binding Ki"}, "[5]": {"molecular_target": "Gal4 DNA binding domain fused to the LBD of LXRβ in HEK293 cells (Homo sapiens (Human), UniProt P55055)", "sequence (P55055 222-460 limits assumed)": "as above", "experiment": "cell-based", "settings": "Biological Test Example 2, agonist mode"}, "[6]": {"settings": "antagonist mode, 200 nM T0901317, HEK293 reporter gene assay"}, "[7]": {"settings": "Biological Test Example 3, agonist mode"}},
  "note": "Read-outs that look alike come from different tables or passages of the source.",
  "data": [
    {"smiles": "CS(=O)(=O)c1cccc(N2CCN(C[C@@H]3CCC[C@@H](C(F)(F)F)C3)[C@@H](c3ccc(F)cc3)C2)c1", "note": "(single isomer, unassigned) [48-39]", "values": [
      {"measurement": "EC50", "setting": "[1]; agonist mode", "result": "> 20000", "unit": "nM"},
      {"measurement": "Cell LXRα efficacy", "setting": "[2]", "result": "78 (86) %"},
      {"measurement": "IC50", "setting": "[2]; [6]", "result": 78, "unit": "nM"}
    ]},
    {"smiles": "CS(=O)(=O)c1cccc(N2CCN(C[C@@H]3CCC[C@H](C(F)(F)F)C3)[C@@H](c3ccc(F)cc3)C2)c1", "note": "(single isomer, unassigned) [48-41]", "values": [
      {"measurement": "Ki", "setting": "LXR α LBD protein [3]", "result": 196, "unit": "nM"},
      {"measurement": "Cell LXRα efficacy", "setting": "[1]", "result": "1459 (7) %"},
      {"measurement": "EC50", "setting": "[1]; agonist mode", "result": 1460, "unit": "nM"},
      {"measurement": "Cell LXRα efficacy", "setting": "[2]", "result": "421 (83) %"},
      {"measurement": "IC50", "setting": "[2]; [6]", "result": 421, "unit": "nM"}
    ]},
    {"smiles": "CS(=O)(=O)c1cccc(N2CCN(CC3CCN(CC(F)(F)F)CC3)[C@@H](c3ccccc3)C2)c1", "note": "(single isomer, unassigned) [48-52]", "values": [
      {"measurement": "Cell LXRα efficacy", "setting": "[1]", "result": "736 (30) %"},
      {"measurement": "EC50", "setting": "[1]; Biological Test Example 2, agonist mode", "result": 736, "unit": "nM"},
      {"measurement": "Cell LXRα efficacy", "setting": "[2]", "result": "4773 (89) %"},
      {"measurement": "IC50", "setting": "[2]; [6]", "result": 4770, "unit": "nM"},
      {"measurement": "EC50", "setting": "LXR α LBD protein [4]; [7]", "result": 1060, "unit": "nM"},
      {"measurement": "FRET LXRα efficacy", "setting": "LXR α LBD protein [4]; [7]", "result": 32, "unit": "%"}
    ]},
    {"smiles": "CS(=O)(=O)c1cccc(N2CCN(C[C@H]3CC[C@@]4(CC3)CC4(F)F)[C@@H](c3ccccc3)C2)c1", "note": "(single isomer, unassigned) [48-69]", "values": [
      {"measurement": "Ki", "setting": "LXR α LBD protein [3]", "result": 111, "unit": "nM"},
      {"measurement": "Ki", "setting": "LXR β LBD protein", "result": 14, "unit": "nM"},
      {"measurement": "Cell LXRα efficacy", "setting": "[1]", "result": "425 (69) %"},
      {"measurement": "EC50", "setting": "[1]", "result": 425, "unit": "nM"},
      {"measurement": "Cell LXRβ efficacy", "setting": "[5]", "result": 43, "unit": "%"},
      {"measurement": "EC50", "setting": "[5]; read-out: Cell LXRβ EC50", "result": 151, "unit": "nM"},
      {"measurement": "IC50", "setting": "[2]", "result": "> 10000", "unit": "nM"}
    ]},
    {"smiles": "CC(C)C[C@@H]1CN(c2cccc(S(C)(=O)=O)c2)CCN1C(=O)OC(C)(C)C", "note": "[1-3, tert-butyl (R)-2-isobutyl-4-(3-(methylsulfonyl)phenyl)piperazine-1-carboxylate]", "values": [
      {"measurement": "Cell LXRα efficacy", "setting": "[1]", "result": "955 (34) %"},
      {"measurement": "EC50", "setting": "[1]; agonist mode", "result": 955, "unit": "nM"},
      {"measurement": "IC50", "setting": "[2]; [6]", "result": 2870, "unit": "nM"},
      {"measurement": "EC50", "setting": "LXR α LBD protein [4]; agonist mode", "result": 1680, "unit": "nM"},
      {"measurement": "FRET LXRα efficacy", "setting": "LXR α LBD protein [4]; agonist mode", "result": 43, "unit": "%"}
    ]},
    {"smiles": "CC(C)(C)OC(=O)N1CCN(c2cccc(S(C)(=O)=O)c2)C[C@H]1Cc1ccccc1", "note": "[1-8, tert-butyl (R)-2-benzyl-4-(3-(methylsulfonyl)phenyl)piperazine-1-carboxylate]", "values": [
      {"measurement": "Cell LXRα efficacy", "setting": "[1]", "result": "1146 (34) %"},
      {"measurement": "EC50", "setting": "[1]; agonist mode", "result": 1150, "unit": "nM"},
      {"measurement": "IC50", "setting": "[2]; [6]", "result": 4710, "unit": "nM"},
      {"measurement": "EC50", "setting": "LXR α LBD protein [4]; agonist mode", "result": 105, "unit": "nM"},
      {"measurement": "FRET LXRα efficacy", "setting": "LXR α LBD protein [4]; agonist mode", "result": 18, "unit": "%"}
    ]},
    {"smiles": "CC(C)[C@@H]1CN(c2ccc(C(N)=O)c(S(C)(=O)=O)c2)CCN1c1nccc(C(F)(F)F)n1", "note": "[4-2, (R)-4-(3-isopropyl-4-(4-(trifluoromethyl)pyrimidin-2-yl)piperazin-1-yl)-2-(methylsulfonyl)benzamide]", "values": [
      {"measurement": "Cell LXRα efficacy", "setting": "[1]", "result": "1172 (71) %"},
      {"measurement": "EC50", "setting": "[1]; agonist mode", "result": 1170, "unit": "nM"},
      {"measurement": "IC50", "setting": "[2]; [6]", "result": "> 10000", "unit": "nM"},
      {"measurement": "EC50", "setting": "LXR α LBD protein [4]; agonist mode", "result": 293, "unit": "nM"},
      {"measurement": "FRET LXRα efficacy", "setting": "LXR α LBD protein [4]; agonist mode", "result": 87, "unit": "%"}
    ]},
    {"smiles": "CC(C)[C@@H]1CN(c2ccc(C#N)c(S(C)(=O)=O)c2)CCN1c1nccc(C(F)(F)F)n1", "note": "[7-17, (R)-4-(3-isopropyl-4-(4-(trifluoromethyl)pyrimidin-2-yl)piperazin-1-yl)-2-(methylsulfonyl)benzonitrile]", "values": [
      {"measurement": "Cell LXRα efficacy", "setting": "[1]", "result": "1115 (69) %"},
      {"measurement": "EC50", "setting": "[1]; agonist mode", "result": 1110, "unit": "nM"},
      {"measurement": "IC50", "setting": "[2]; [6]", "result": 6030, "unit": "nM"}
    ]},
    {"smiles": "COCCN(C)Cc1cnc(N2CCN(c3ccc(F)c(S(C)(=O)=O)c3)C[C@H]2C(C)C)nc1C(F)(F)F", "note": "[15-10, (R)-N-((2-(4-(4-fluoro-3-(methylsulfonyl)phenyl)-2-isopropylpiperazin-1-yl)-4-(trifluoromethyl)pyrimidin-5-yl)methyl)-2-methoxy-N-methylethan-1-amine]", "values": [
      {"measurement": "Ki", "setting": "LXR α LBD protein [3]", "result": 948, "unit": "nM"},
      {"measurement": "Cell LXRα efficacy", "setting": "[1]", "result": "5353 (16) %"},
      {"measurement": "EC50", "setting": "[1]; agonist mode", "result": 5350, "unit": "nM"},
      {"measurement": "IC50", "setting": "[2]; [6]", "result": 1620, "unit": "nM"}
    ]},
    {"smiles": "CS(=O)(=O)c1cccc(N2CCN(C[C@H]3CCC[C@H](C(F)(F)F)C3)[C@@H](c3ccc(F)cc3)C2)c1", "note": "[48-40, (S)-2-(4-fluorophenyl)-4-(3-(methylsulfonyl)phenyl)-1-(((1S,3S)-3-(trifluoromethyl)cyclohexyl)methyl)piperazine]", "values": [
      {"measurement": "Ki", "setting": "LXR α LBD protein [3]", "result": 2480, "unit": "nM"},
      {"measurement": "EC50", "setting": "[1]; agonist mode", "result": "> 20000", "unit": "nM"},
      {"measurement": "IC50", "setting": "[2]; [6]", "result": "> 10000", "unit": "nM"}
    ]},
    {"smiles": "CC(C)[C@@H]1CN(c2ccc(F)c(S(C)(=O)=O)c2)CCN1c1ncc(Cc2ccc(C(=O)O)cc2)c(C(F)(F)F)n1", "note": "[Cpd No 32-1, (R)-4-((2-(4-(4-fluoro-3-(methylsulfonyl)phenyl)-2-isopropylpiperazin-1-yl)-4-(trifluoromethyl)pyrimidin-5-yl)methyl)benzoic acid]", "values": [
      {"measurement": "Ki", "setting": "LXR α LBD protein [3]", "result": 197, "unit": "nM"},
      {"measurement": "Cell LXRα efficacy", "setting": "[1]", "result": "4667 (6) %"},
      {"measurement": "EC50", "setting": "[1]", "result": 4670, "unit": "nM"},
      {"measurement": "IC50", "setting": "[2]", "result": 544, "unit": "nM"}
    ]}
  ]
}
